# Measurements published in patent US20260217767A1, “NOVEL A4B7 THIOETHER PEPTIDE DIMER ANTAGONISTS” (Protagonist Therapeutics, Inc., priority 2014, published 2026).
# Where a SMILES comes first, the peptide text is derived from it.
# Target: T1, rh integrin α4β7 (Homo sapiens, UniProt P13612+P26010)
# T1 construct: purchased R&D Systems 5397-A30
# T1 sequence (P13612 34-977 limits assumed): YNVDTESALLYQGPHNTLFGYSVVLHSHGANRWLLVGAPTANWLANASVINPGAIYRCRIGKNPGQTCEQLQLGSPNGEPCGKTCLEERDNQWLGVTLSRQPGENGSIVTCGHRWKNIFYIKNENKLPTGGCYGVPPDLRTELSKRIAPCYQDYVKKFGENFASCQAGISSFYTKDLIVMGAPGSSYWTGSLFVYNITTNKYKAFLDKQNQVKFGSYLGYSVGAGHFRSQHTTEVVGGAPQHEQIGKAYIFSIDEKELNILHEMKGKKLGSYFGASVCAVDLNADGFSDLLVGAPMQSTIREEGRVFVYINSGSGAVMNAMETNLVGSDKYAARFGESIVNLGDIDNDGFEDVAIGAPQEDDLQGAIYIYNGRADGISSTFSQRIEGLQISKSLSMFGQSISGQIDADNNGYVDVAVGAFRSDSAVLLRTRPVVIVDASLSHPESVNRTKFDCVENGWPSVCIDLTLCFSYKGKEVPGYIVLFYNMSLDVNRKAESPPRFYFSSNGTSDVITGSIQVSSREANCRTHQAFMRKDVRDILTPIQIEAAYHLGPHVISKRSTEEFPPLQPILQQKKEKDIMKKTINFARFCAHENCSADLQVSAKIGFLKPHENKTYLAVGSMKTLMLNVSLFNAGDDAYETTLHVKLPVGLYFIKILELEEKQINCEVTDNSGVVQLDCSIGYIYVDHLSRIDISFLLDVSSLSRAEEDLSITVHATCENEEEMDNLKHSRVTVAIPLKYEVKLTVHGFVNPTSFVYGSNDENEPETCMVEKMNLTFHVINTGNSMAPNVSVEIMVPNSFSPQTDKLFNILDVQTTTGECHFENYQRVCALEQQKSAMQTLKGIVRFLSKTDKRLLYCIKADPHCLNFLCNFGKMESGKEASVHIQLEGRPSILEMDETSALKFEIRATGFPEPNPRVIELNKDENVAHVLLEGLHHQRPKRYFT
# T1 sequence (P26010 20-723 limits assumed): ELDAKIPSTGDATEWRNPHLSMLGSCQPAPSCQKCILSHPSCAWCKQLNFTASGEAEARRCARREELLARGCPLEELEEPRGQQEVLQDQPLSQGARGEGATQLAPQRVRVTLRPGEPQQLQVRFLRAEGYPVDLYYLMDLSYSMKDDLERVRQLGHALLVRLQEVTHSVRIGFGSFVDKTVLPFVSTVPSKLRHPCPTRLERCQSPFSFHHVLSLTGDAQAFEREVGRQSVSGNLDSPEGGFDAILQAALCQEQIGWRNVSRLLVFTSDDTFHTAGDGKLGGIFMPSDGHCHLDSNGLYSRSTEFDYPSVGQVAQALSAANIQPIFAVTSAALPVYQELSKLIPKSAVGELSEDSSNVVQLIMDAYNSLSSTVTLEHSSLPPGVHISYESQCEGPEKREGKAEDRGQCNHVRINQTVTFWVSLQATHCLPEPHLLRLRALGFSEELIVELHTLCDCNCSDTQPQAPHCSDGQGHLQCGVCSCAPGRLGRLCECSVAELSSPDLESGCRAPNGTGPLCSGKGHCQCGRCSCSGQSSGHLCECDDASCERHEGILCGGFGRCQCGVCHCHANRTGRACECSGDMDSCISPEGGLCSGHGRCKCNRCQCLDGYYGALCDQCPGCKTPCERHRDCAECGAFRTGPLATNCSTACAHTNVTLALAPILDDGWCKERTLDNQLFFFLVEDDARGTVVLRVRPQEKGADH
# Assay: α4β7-MAdCAM Competition ELISA
# Type: binding
# Details: thioether monomer peptides, Table 6; read-out: ELISA A4B7
# Outline: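 Recombinant human α4β7 captured on nickel-coated plates, then incubated 1 h at room temperature with serially diluted peptides (final top 10 μM) and 10 nM final MAdCAM-1 in Tris pH 7.6 buffer with 1 mM MnCl2 or MgCl2. Bound MAdCAM-1 detected with anti-human IgG1-HRP and TMB, absorbance at 450 nm.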
row,SMILES,IC50
1,"CC(C)C[C@@H]1NC(=O)[C@H]([C@@H](C)O)NC(=O)[C@H](CC(=O)O)NC(=O)[C@H](CO)NC(=O)[C@H](CCCNC(=N)N)N(C)C(=O)c2ccccc2CSC(C)(C)[C@@H](C(=O)N[C@@H](Cc2c[nH]c3ccccc23)C(=O)N[C@H](CCC(=O)O)C(=O)N[C@H](CO)C(N)=O)NC1=O [compound 106] (HELM PEPTIDE1{[meR].S.D.T.L.[Pen].W.[dE].[dS].[am]}|CHEM1{[O=C(c1ccccc1C[*:2])[*:1]]}$PEPTIDE1,CHEM1,1:R1-1:R1|PEPTIDE1,CHEM1,6:R3-1:R2$$$V2.0)",< 25 nM
2,"CC(C)C[C@@H]1NC(=O)[C@H]([C@@H](C)O)NC(=O)[C@H](CC(=O)O)NC(=O)[C@H](CO)NC(=O)[C@H](CCCNC(=N)N)N(C)C(=O)c2ccccc2CSC(C)(C)[C@@H](C(=O)N[C@@H](Cc2c[nH]c3ccccc23)C(=O)N[C@H](CCC(=O)O)C(=O)N[C@@H](CCC(=O)O)C(N)=O)NC1=O [compound 113] (HELM PEPTIDE1{[meR].S.D.T.L.[Pen].W.[dE].E.[am]}|CHEM1{[O=C(c1ccccc1C[*:2])[*:1]]}$PEPTIDE1,CHEM1,1:R1-1:R1|PEPTIDE1,CHEM1,6:R3-1:R2$$$V2.0)",< 25 nM
3,"CC(C)C[C@@H]1NC(=O)[C@H]([C@@H](C)O)NC(=O)[C@H](CC(=O)O)NC(=O)[C@H](CO)NC(=O)[C@H](CCCNC(=N)N)N(C)C(=O)c2ccccc2CSC(C)(C)[C@@H](C(=O)N[C@@H](Cc2c[nH]c3ccccc23)C(=O)N[C@H](CCC(=O)O)C(=O)N[C@H](Cc2ccc(O)cc2)C(N)=O)NC1=O [compound 110] (HELM PEPTIDE1{[meR].S.D.T.L.[Pen].W.[dE].[dY].[am]}|CHEM1{[O=C(c1ccccc1C[*:2])[*:1]]}$PEPTIDE1,CHEM1,1:R1-1:R1|PEPTIDE1,CHEM1,6:R3-1:R2$$$V2.0)",< 25 nM
4,"CC(C)C[C@@H]1NC(=O)[C@H]([C@@H](C)O)NC(=O)[C@H](CC(=O)O)NC(=O)[C@H](CO)NC(=O)[C@H](CCCNC(=N)N)N(C)C(=O)c2ccccc2CSC(C)(C)[C@@H](C(=O)N[C@@H](Cc2ccc3ccccc3c2)C(N)=O)NC1=O [compound 116] (HELM PEPTIDE1{[meR].S.D.T.L.[Pen].[O=C([C@H](Cc1ccc2ccccc2c1)N[*:1])[*:2]].[am]}|CHEM1{[O=C(c1ccccc1C[*:2])[*:1]]}$PEPTIDE1,CHEM1,1:R1-1:R1|PEPTIDE1,CHEM1,6:R3-1:R2$$$V2.0)",< 25 nM
5,"CC(C)C[C@@H]1NC(=O)[C@H]([C@@H](C)O)NC(=O)[C@H](CC(=O)O)NC(=O)[C@H](CO)NC(=O)[C@H](CCCNC(=N)N)N(C)C(=O)c2ccccc2CSC(C)(C)[C@@H](C(=O)N[C@@H](Cc2c[nH]c3ccccc23)C(=O)N[C@@H](CCC(=O)O)C(=O)N[C@@H](CCN)C(N)=O)NC1=O [compound 93] (HELM PEPTIDE1{[meR].S.D.T.L.[Pen].W.E.[Dab].[am]}|CHEM1{[O=C(c1ccccc1C[*:2])[*:1]]}$PEPTIDE1,CHEM1,1:R1-1:R1|PEPTIDE1,CHEM1,6:R3-1:R2$$$V2.0)",< 25 nM

# Same assay, conditions: thioether peptide dimers, Table 7; read-out: ELISA A4B7
row,SMILES,IC50
1,"CC(C)C[C@@H]1NC(=O)[C@H]([C@@H](C)O)NC(=O)[C@H](CC(=O)O)NC(=O)[C@H](CO)NC(=O)[C@H](CCCNC(=N)N)N(C)C(=O)c2ccccc2CSC(C)(C)[C@@H](C(=O)N[C@@H](Cc2ccc(-c3ccccc3)cc2)C(=O)N[C@H](CCC(=O)O)C(=O)N[C@H](CCCCN)C(N)=O)NC1=O [compound 178] (HELM PEPTIDE1{[meR].S.D.T.L.[Pen].[O=C([C@H](Cc1ccc(-c2ccccc2)cc1)N[*:1])[*:2]].[dE].[dK].[am]}|CHEM1{[O=C(c1ccccc1C[*:2])[*:1]]}$PEPTIDE1,CHEM1,1:R1-1:R1|PEPTIDE1,CHEM1,6:R3-1:R2$$$V2.0)",< 25 nM
2,CC(C)C[C@@H]1NC(=O)[C@H]([C@@H](C)O)NC(=O)[C@H](CC(=O)O)NC(=O)[C@H](CO)NC(=O)[C@H](CCCNC(=N)N)N(C)C(=O)CSC[C@@H](C(=O)N[C@@H](Cc2c[nH]c3ccccc23)C(=O)N[C@H](CCCCNC(=O)COCC(=O)NCCCC[C@@H](NC(=O)[C@H](Cc2c[nH]c3ccccc23)NC(=O)[C@@H]2CSCC(=O)N(C)[C@@H](CCCNC(=N)N)C(=O)N[C@@H](CO)C(=O)N[C@@H](CC(=O)O)C(=O)N[C@@H]([C@@H](C)O)C(=O)N[C@@H](CC(C)C)C(=O)N2)C(N)=O)C(N)=O)NC1=O [compound 143],< 25 nM
